These are literature values, as cited in publication PMC4237557 (Diabetes, Obesity & Metabolism, 2014).

The subject of data set [1] is insulin-like growth factor 1 receptor (IGF-1R). The note with it: in vitro.
For data set [2] the following is noted: in vitro.

Take “21^A-Gly-des-30^B-Thr-human insulin [M2]”: the “Affinity for IGF-1R compared with human insulin” value in data set [1] is listed as “lower affinity”.
For 21^A-Gly-human insulin [M1], the “Glucose-lowering potency compared with parent glargine (M0)” value is listed as “equal glucose-lowering potency”. Also, in data set [1], the “Affinity for IGF-1R compared with human insulin” value is “lower affinity”. Besides, the “Mitogenicity compared with endogenous human insulin” value in data set [2] is given as “does not exhibit an increased affinity for IGF-1R or increased mitogenicity”.
